System: purified human Hsp90
Assay: Binding Assay: fluorescence polarization with BODIPY-labeled geldanamycin
Settings: BODIPY-GM 10 nM, Hsp90 30 nM
In short: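 Compounds in 2% DMSO final compete with 10 nM BODIPY-GM for 30 nM purified human Hsp90, incubated overnight at room temperature in pH 7.3 HEPES buffer containing Na2MoO4 and DTT. Polarization (mP, ex/em 485/530) normalized to DMSO gives percent inhibition; autofluorescence-confounded data excluded.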

| SMILES | % Inhibition at 5 μM Compound Concentration [%] | IC50 [nM] |
| --- | --- | --- |
| Nc1ncn(CCn2cccc2)c2nc(Sc3ccc4c(c3)OCO4)nc1-2 [Example 50, 8-(benzo[1,3]dioxol-5-ylsulfanyl)-3-(2-pyrrol-1-yl-ethyl)-3H-purin-6-ylamine] | 3 |  |
| COc1ccc(OC)c(Sc2nc3c(N)ncnc3n2CCN2CCN(C(C)C)CC2)c1 [Example 493, 8-[(2,5-Dimethoxyphenyl)thio]-9-[2-(4-isopropylpiperazin-1-yl)ethyl]-9 H-purin-6-amine] |  | 8900 |
| CS(=O)(=O)N1CCCCC1CCn1cnc(N)c2nc(Sc3cc4c(cc3Br)OCO4)nc1-2 (stereo not drawn) [Example 373, 8-[(6-Bromo-1,3-benzodioxol-5-yl)thio]-3-{2-[1-(methylsulfonyl)piperidin-2-yl]ethyl}-3H-purin-6-amine] | 15 |  |
| COc1ccc([N+](=O)[O-])cc1Sc1nc2c(N)ncn(CCC3CCN(C=O)CC3)c-2n1 [Example 537, 4-(2-{6-Amino-8-[(2-methoxy-5-nitrophenyl)thio]-3 H-purin-3-yl}ethyl)piperidine-1-carbaldehyde] |  | > 5000 |
| COc1ccc(C)cc1Sc1nc2c(N)ncnc2n1CCc1ccccc1Cl [Example 324, 9-[2-(2-Chlorophenyl)ethyl]-8-[(2-methoxy-5-methylphenyl)thio]-9H-purin-6-amine] |  | 2800 |
| COc1ccc(C)cc1Sc1nc2c(N)ncn(CCc3ccccc3Cl)c-2n1 [Example 325, 3-[2-(2-Chlorophenyl)ethyl]-8-[(2-methoxy-5-methylphenyl)thio]-3H-purin-6-amine] | 0.0 |  |
| Nc1ncnc2c1nc(Sc1cc3c(cc1Br)OCO3)n2CC[C@H]1CCCN(C=O)C1 [Example 604, (3R)-3-(2-{6-Amino-8-[(6-bromo-1,3-benzodioxol-5-yl)thio]-9 H-purin-9-yl}ethyl)piperidine-1-carbaldehyde] |  | 190 |
| CC(C)(C)OC(=O)Nc1ccc(CCn2cnc(N)c3nc(Sc4cc5c(cc4Br)OCO5)nc2-3)cc1 [Example 212, (4-{2-[6-amino-8-(6-bromo-benzo[1,3]dioxol-5-ylsulfanyl)-purin-3-yl]-ethyl}-phenyl)carbamic acid tert-butyl ester] | 4 |  |
| CC(C)(C)n1nnnc1N1CCC(CCn2cnc(N)c3nc(Sc4cc5c(cc4Br)OCO5)nc2-3)CC1 [Example 615, 8-[(6-Bromo-1,3-benzodioxol-5-yl)thio]-3-{2-[1-(1-tert-butyl-1 H-tetrazol-5-yl)piperidin-4-yl]ethyl}-3 H-purin-6-amine] | 13.00 |  |
| COc1ccc(OC)c(Sc2nc3c(N)ncnc3n2CCc2ccc(O)cc2)c1 [Example 76, 4-{2-[6-amino-8-(2,5-dimethoxy-phenylsulfanyl)-purin-9-yl]-ethyl}-phenol] | 6 |  |
| Nc1ncnc2c1nc(Sc1cc3c(cc1Br)OCO3)n2CCC1CCN(C(=O)[C@@H]2CCN2)CC1 [Example 752, 9-(2-{1-[(2S)-Azetidin-2-ylcarbonyl]piperidin-4-yl}ethyl)-8-[(6-bromo-1,3-benzo-dioxol-5-yl)thio]-9H-purin-6-amine] |  | 130 |
| CC(C)(C)OC(=O)N[C@H]1CC[C@@H](CCn2cnc(N)c3nc(Sc4cc5c(cc4Br)OCO5)nc2-3)CC1 [Example 399, tert-Butyl [cis-4-(2-{6-amino-8-[(6-bromo-1,3-benzodioxol-5-yl)thio]-3H-purin-3-yl}ethyl)cyclohexyl]carbamate] |  | 950 |
| CC(C)[C@@H]1C[C@H](CCn2c(Sc3cc4c(cc3Br)OCO4)nc3c(N)ncnc32)CCN1C(=O)OC(C)(C)C (relative stereo) [Example 429, tert-Butyl cis-4-(2-{6-amino-8-[(6-bromo-1,3-benzodioxol-5-yl)thio]-9H-purin-9-yl}ethyl)-2-isopropylpiperidine-1-carboxylate] |  | 3800 |
| COc1ccc(OC)c(Sc2nc3c(N)ncnc3n2CCC(NS(C)(=O)=O)C2CC2)c1 (stereo not drawn) [Example 676, N-(3-{6-Amino-8-[(2,5-dimethoxyphenyl)thio]-9H-purin-9-yl}-1-cyclopropylpropyl)methanesulfonamide] |  | 950 |
| Nc1ncnc2c1nc(Sc1cc3c(cc1Br)OCO3)n2CCc1ccc(Cl)cc1F [Example 39, 8-(6-Bromo-benzo[1,3]dioxol-5-ylsulfanyl)-9-[2-(4-chloro-2-fluorophenyl)-ethyl]-9H-purin-6-ylamine] |  | 230 |
| CC(C)(C)OC(=O)NC(CCn1c(Sc2cc3c(cc2Br)OCO3)nc2c(N)ncnc21)C1CCC1 (stereo not drawn) [Example 672, tert-Butyl(3-{6-amino-8-[(6-bromo-1,3-benzodioxol-5-yl)thio]-9H-purin-9-yl}-1-cyclobutylpropyl)carbamate] |  | 900 |
| COc1ccc(OC)c(Sc2nc3c(N)ncn(CCc4ccccc4Cl)c-3n2)c1 [Example 26, 3-[2-(2-chloro-phenyl)-ethyl]-8-(2,5-dimethoxy-phenylsulfanyl)-3H-purin-6-ylamine] |  | > 10000 |
| CC(=O)N1CCN(CCn2cnc(N)c3nc(Sc4cc5c(cc4Br)OCO5)nc2-3)CC1 [Example 383, 3-[2-(4-Acetylpiperazin-1-yl)ethyl]-8-[(6-bromo-1,3-benzodioxol-5-yl)thio]-3H-purin-6-amine] |  | 21000 |

| SMILES | % Inhibition at 5 μM Compound Concentration [%] | IC50 [nM] |
| --- | --- | --- |
| Nc1ncn(CCc2ccc(F)cc2)c2nc(Sc3ccc4c(c3)OCO4)nc1-2 [Example 12, 8-(benzo[1,3]dioxol-5-ylsulfanyl)-3-[2-(4-fluoro-phenyl)-ethyl]-3H-purin-6-ylamine] |  | > 10000 |
| CC(C)[C@H](N)C(=O)N1CCCC(CCn2c(Sc3cc4c(cc3Br)OCO4)nc3c(N)ncnc32)C1 (stereo partly drawn) [Example 745, 9-(2-{1-[(2S)-2-Amino-3-methylbutanoyl]piperidin-3-yl}ethyl)-8-[(6-bromo-1,3-benzodioxol-5-yl)thio]-9H-purin-6-amine] |  | 123 |
| Nc1ncnc2c1nc(Sc1cc3c(cc1Br)OCO3)n2CC=C1CCNCC1 [Example 471, 8-[(6-Bromo-1,3-benzodioxol-5-yl)thio]-9-(2-piperidin-4-ylideneethyl)-9 H-purin-6-amine] |  | 600 |
| Nc1ncnc2c1nc(Sc1cc3c(cc1Br)OCO3)n2CCC1(F)C(F)(F)C(F)(F)C(F)(F)C(F)(F)C1(F)F [Example 243, 8-[(6-Bromo-1,3-benzodioxol-5-yl)thio]-9-[2-(undecafluorocyclohexyl)ethyl]-9H-purin-6-amine] |  | > 1000 |
| CC(C)(C)NC(=O)N1CCCC(CCn2cnc(N)c3nc(Sc4cc5c(cc4Br)OCO5)nc2-3)C1 (stereo not drawn) [Example 442, 3-(2-{6-Amino-8-[(6-bromo-1,3-benzodioxol-5-yl)thio]-3H-purin-3-yl}ethyl)-N-(tert-butyl)piperidine-1-carboxamide] | 4 |  |
| CC(=O)N1CCC(CCn2c(Sc3ccc4c(c3)OCO4)nc3c(N)ncnc32)CC1 [Example 561, 9-[2-(1-Acetylpiperidin-4-yl)ethyl]-8-(1,3-benzodioxol-5-ylthio)-9 H-purin-6-amine] |  | > 5000 |
| COc1cc(Sc2nc3c(N)ncnc3n2CCc2ccccc2)c(Cl)c(OC)c1OC [Example 286, 8-[(2-Chloro-3,4,5-trimethoxyphenyl)thio]-9-(2-phenylethyl)-9H-purin-6-amine] |  | 3000 |
| COc1ccc(F)cc1Sc1nc2c(N)ncn(CCc3ccccc3Cl)c-2n1 [Example 317, 3-[2-(2-Chlorophenyl)ethyl]-8-[(5-fluoro-2-methoxyphenyl)thio]-3H-purin-6-amine] | 0.0 |  |
| Nc1ncn(CCC2CCN(C(=O)OCc3ccccc3)CC2)c2nc(Sc3cc4c(cc3Br)OCO4)nc1-2 [Example 410, Benzyl 4-(2-{6-amino-8-[(6-bromo-1,3-benzodioxol-5-yl)thio]-3H-purin-3-yl}ethyl)piperidine-1-carboxylate] | 11 |  |
| CCC(Cn1c(Sc2cc3c(cc2Br)OCO3)nc2c(N)ncnc21)c1ccccc1 (stereo not drawn) [Example 57, 8-(6-Bromo-benzo[1,3]dioxol-5-ylsulfanyl)-9-(2-phenyl-butyl)-9H-purin-6-ylamine] |  | 400 |
| COc1ccc(C#N)cc1Sc1nc2c(N)ncnc2n1CCc1ccccc1Cl [Example 306, 3-({6-Amino-9-[2-(2-chlorophenyl)ethyl]-9H-purin-8-yl}thio)-4-methoxybenzonitrile] |  | > 25000 |
| COc1ccc(OC)c(Sc2nc3c(N)ncnc3n2CC2(c3ccc(Cl)cc3)CCC2)c1 [Example 61, 9-[1-(4-Chloro-phenyl)-cyclobutylmethyl]-8-(2,5-dimethoxy-phenylsulfanyl)-9H-purin-6-ylamine] |  | > 10000 |
| Nc1ncnc2c1nc(Sc1cc3c(cc1Br)OCO3)n2CCC1CCNC1 (stereo not drawn) [Example 476, 8-[(6-Bromo-1,3-benzodioxol-5-yl)thio]-9-(2-pyrrolidin-3-ylethyl)-9 H-purin-6-amine] |  | 90 |
| COc1ccc(OC)c(Sc2nc3c(N)ncn(CCC4CCOCC4)c-3n2)c1 [Example 349, 8-[(2,5-Dimethoxyphenyl)thio]-3-[2-(tetrahydro-2H-pyran-4-yl)ethyl]-3H-purin-6-amine] | 12 |  |
| Nc1ncnc2c1nc(Sc1cc3c(cc1Br)OCO3)n2CCC(N)C1CCSCC1 (stereo not drawn) [Example 689, 9-[3-Amino-3-(tetrahydro-2H-thiopyran-4-yl)propyl]-8-[(6-bromo-1,3-benzodioxol-5-yl)thio]-9H-purin-6-amine] |  | 120 |
| CC(C)N1CCN(CCn2cnc(N)c3nc(Sc4cc5c(cc4Br)OCO5)nc2-3)CC1 [Example 488, 8-[(6-Bromo-1,3-benzodioxol-5-yl)thio]-3-[2-(4-isopropylpiperazin-1-yl)ethyl]-3H-purin-6-amine] | 29 |  |
| COc1ccc(OC)c(Sc2nc3c(N)ncnc3n2CCc2ccccc2)c1 [Example 1, 8-(2,5-Dimethoxy-phenylsulfanyl)-9-phenethyl-9H-purin-6-ylamine] |  | 340 |
| COc1ccc(OC)c(Sc2nc3c(N)ncnc3n2CCC2CCNCC2)c1 [Example 469, 8-[(2,5-Dimethoxyphenyl)thio]-9-(2-piperidin-4-ylethyl)-9 H-purin-6-amine] |  | 8800 |
